Data published in US20200375965A1, “Targeting Lipid Metabolism and Free Fatty Acid (FFA) Oxidation to Treat Diseases Mediated by Resident Memory T Cells (TRM)” (The Brigham and Women's Hospital, Inc., priority 2018, published 2020).

Assays:
[1] = tested on: VACV; set-up: species or system mice; conditions: mouse, in vivo
[2] = tested on: WR-VACV; set-up: species or system mice; conditions: mouse, in vivo
[3] = tested on: OT-I TRM, TCM and Fabp4/5 dKO TRM; experiment: Seahorse Fatty Acid Oxidation (FAO) assay, oxygen-consumption rate; type: cell-based, mouse
Method: Oxidation of exogenous free fatty acids (FFA) was measured using XF Palmitate-BSA FAO substrate with XF cell mito stress kit according to the manufacturer's protocol (Seahorse Bioscience). Freshly isolated and sorted T cells (2.5×10^5) were incubated for 30 min with FAO assay medium (111 mM NaCl, 4.7 mM KCl, 1.25 mM CaCl2), 2.0 mM MgSO4, 1.2 mM Na2HPO4, 2.5 mM glucose, 0.5 mM carnitine and 5 mM HEPES). When required, cells were pre-treated with etomoxir (40 μM) for 15 min. Afterwards, BSA (34 μM) or palmitate-BSA (200 μM palmitate conjugated with 34 μM BSA) was added to the medium, and the oxygen-consumption rate (OCR) was measured under basal conditions and in response to 1 uM oligomycin, 1.5 uM fluorocarbonyl cyanide phenylhydrazone (FCCP), and 100 nM rotenone+1 uM antimycin A. Results were normalized to those of control cells in the presence of BSA.

[4] = tested on: TRM mediated contact hypersensitivity (CHS); experiment: DNFB contact hypersensitivity (CHS), ear thickness; type: in vivo, C57BL/6 mice; conditions: etomoxir 1 ug/site, trimetazidine 10 ug/site at challenge with 0.25% DNFB
Method: FIG. 15. […] Effect of FAO inhibition on contact hypersensitivity (CHS) reaction post DNFB re-exposure. DNFB: 20 ul, 0.25% in acetone:olive oil (aOO) (3:1 v/v); Etomoxir (1 ug/site); Trimetazidine (10 ug/site). N=10 mice per group.
C57BL/6 mice were sensitized by topical applications of 20 μl of 0.25% DNFB diluted in acetone olive oil (3:1 v/v) at the indicated time points (day 0, 1 and 7). Challenge was performed at the infection site with 20 μl of DNFB-acetone olive oil (aOO) (0.25%), with or without etomoxir (1 ug/site) and trimetazidine (10 ug/site), at the indicated time points. Then the ear thickness of the mice was measured with a digital thickness gauge (Mitsutoyo) for the following days.

[5] = tested on: OT-1 skin TRM; experiment: Bodipy FL C16 (Bodipy conjugated palmitate) uptake ex vivo, flow cytometry; type: cell-based, mouse; conditions: pre-incubation with unlabeled palmitate (100 μM palmitic acid, 10 min, 37° C.); day 30 TRM
From the text: The following anti-mouse antibodies were obtained from BD PharMingen: PerCP-conjugated anti-CD3e (553067), PE-conjugated anti-CD8 (557654), PE-Cy7-conjugated anti-CD8 (552877), APC-Cy7-conjugated anti-CD8 (557654), PE-conjugated anti-Thy1.1 (561404), APC-conjugated anti-Thy1.1 (557266), Alexa Fluor 488-conjugated anti-KLRG1 (561619), PE-conjugated anti-integrin α4β7 (553811), PE-Cy7-conjugated anti-CD62L (560516), APC-Cy7-conjugated CD62L (560514), APC-conjugated anti-IFN-γ (554413). Biolegend: Alexa Fluor 488-conjugated anti-CD3e (100321), Alexa Fluor 647-conjugated anti-CD4 (100424), Alexa Fluor 594-conjugated anti-Ep-CAM (118222), FITC-conjugated anti-CD45.1 (110706), PE-conjugated anti-CD45.1 (110708), PE-Cy7-conjugated anti-CD45.2 (109830), APC-conjugated anti-CD45.2 (109814), PE-conjugated anti-CD45.2 (109808), APC-conjugated anti-KLRG1 (138412), PE-conjugated anti-CD44 (103008), PE-Cy7-conjugated anti-CD44 (103030), PE-Cy7-conjugated anti-CD69 (104512), APC-conjugated anti-CD103 (121414), APC-conjugated anti-integrin α4β7 (120608). […] Apoptosis was measured with FITC Annexin V Apoptosis Detection Kit (640922; Biolegend) according to manufacturer's protocol. Flow cytometry data were acquired with a FACS Canto II flow cytometer (BD Biosciences) and data were analyzed with Flowjo software (Tree Star). […]

## CCCCCCCCc1ccc(CCC(N)(CO)CO)cc1 [FTY720]
[1]; ip, 1 mg/kg
  clearing of virus from skin by established OT-I WT TRM: unaffected
  reduced viral clearance by OT-I TRM lacking Fabp4 and Fabp5: exaggerated
[2]
  mortality: 100%
  protection from lethality: partially but significantly protected

## CCOC(=O)C1(CCCCCCOc2ccc(Cl)cc2)CO1 (stereo not shown) [etomoxir, 2-(6-(4-chlorophenoxy)-hexyl)-oxirane-2-carboxylic acid ethyl ester]
[3]; OT-I TRM, pre-treatment with etomoxir 40 μM for 15 min
  enhanced basal and FCCP-stimulated maximal oxygen-consumption rate (OCR) induced by extracellular fatty acids: blocked
[3]; TCM or Fabp4/5 dKO TRM OT-I cells, addition of etomoxir
  cellular respiration (OCR): no effect
[1]
  VACV clearing capacity of OT-I WT TRM: reduced
[4]
  contact hypersensitivity (CHS) reaction post DNFB re-exposure: Block

## COc1ccc(CN2CCNCC2)c(OC)c1OC [trimetazidine]
[4]
  contact hypersensitivity (CHS) reaction post DNFB re-exposure: Block

## CCCCCCCCCCCCCCCC(=O)O [unlabeled palmitate, palmitic acid]
[5]
  uptake of extracellular Bodipy conjugated palmitate: blocked
